Active and inactive are the calls of the source. The rule behind the calls is not given here.
Assays:
Bacteria [1] = test: Inhibition of bacterial metallo-beta-lactamase L1 expressed in Escherichia coli […] cells at 500 uM using imipenem as substrate by UV spectrometry
Bacteria [2] = test: Inhibition of bacterial ImiS expressed in Escherichia coli BL21 (DE3) transformed cells assessed as potentiation of imipenem-induced antibacterial activity by measuring imipenem MIC after 20 hrs by broth microdilution assay (reference value: 1 ug/ml)
Escherichia coli = test: Antibacterial activity against Escherichia coli BL21(DE3) at 16 ug/ml after 20 hrs by broth microdilution assay; assay type: functional, organism-based
Bacteria [3] = test: Inhibition of bacterial NDM1 expressed in Escherichia coli DH5R transformed cells at 500 uM using imipenem as substrate by UV spectrometry
[4] = Inhibition of bacterial ImiS expressed in Escherichia coli BL21 (DE3) transformed cells using imipenem as substrate by UV spectrometry; design: species or system Bacteria
Bacteria [5] = test: Inhibition of bacterial NDM1 expressed in Escherichia coli BL21 (DE3) transformed cells assessed as potentiation of imipenem-induced antibacterial activity by measuring imipenem MIC after 20 hrs by broth microdilution assay (reference value: 16 ug/ml)
[6] = Inhibition of bacterial NDM1 expressed in Escherichia coli DH5R transformed cells using imipenem as substrate by UV spectrometry; design: species or system Bacteria
Bacteria [7] = test: Inhibition of bacterial ImiS expressed in Escherichia coli BL21 (DE3) transformed cells at 500 uM using imipenem as substrate by UV spectrometry
Bacteria [8] = test: Uncompetitive inhibition of bacterial ImiS expressed in Escherichia coli BL21 (DE3) transformed cells using imipenem as substrate after 5 mins by Lineweaver-Burk plot method
Bacteria [9] = test: Competitive inhibition of bacterial ImiS expressed in Escherichia coli BL21 (DE3) transformed cells using imipenem as substrate after 5 mins by Lineweaver-Burk plot method
Bacteria [10] = test: Uncompetitive inhibition of bacterial NDM-1 expressed in Escherichia coli BL21 (DE3) transformed cells using imipenem as substrate after 5 mins by Lineweaver-Burk plot method
Bacteria [11] = test: Competitive inhibition of bacterial NDM-1 expressed in Escherichia coli BL21 (DE3) transformed cells using imipenem as substrate after 5 mins by Lineweaver-Burk plot method

Row | Compound | MIC (Bacteria [2]) [µg/mL] | IC50 [4] [µM] | MIC (Bacteria [5]) [µg/mL] | IC50 [6] [µM] | inhibition (Bacteria [1]) | Activity (Escherichia coli) | inhibition (Bacteria [3]) | inhibition (Bacteria [7]) | Kiuc (Bacteria [8]) [nM] | Kic (Bacteria [9]) [nM] | Kiuc (Bacteria [10]) [nM] | Kic (Bacteria [11]) [nM]
1 | O=C(CSc1nnc(-c2ccccc2O)s1)Nc1nc2ccc([N+](=O)[O-])cc2[nH]1 | 1 | – | 8 | 6.4 | inactive | inactive | – | inactive | – | – | – | –
2 | O=C(CSc1nnc(Cc2ccccc2)s1)Nc1nc2ccccc2[nH]1 | 0.5 | 18 | 16 | – | inactive | inactive | inactive | – | – | – | – | –
3 | Nc1ccccc1-c1nnc(SCC(=O)Nc2nc3ccccc3[nH]2)s1 | 0.5 | 1.2 | 32 | – | inactive | inactive | inactive | – | – | – | – | –
4 | Nn1c(Cc2ccccc2)nnc1SCC(=O)Nc1nc2ccccc2[nH]1 | 0.5 | 0.27 | 16 | – | inactive | inactive | inactive | – | – | – | – | –
5 | O=C(CSc1nnc(CCc2nnc(SCC(=O)Nc3nc4ccccc4[nH]3)s2)s1)Nc1nc2ccccc2[nH]1 | 0.25 | 0.39 | 16 | – | inactive | inactive | inactive | – | – | – | – | –
6 | O=C(CSc1nnc(-c2cccc([N+](=O)[O-])c2)s1)Nc1nc2ccccc2o1 | 0.5 | 133 | 16 | – | inactive | inactive | inactive | – | – | – | – | –
7 | O=C(CSc1nnc(Cc2ccccc2)o1)Nc1nc2ccccc2[nH]1 | 0.25 | 3 | 16 | – | inactive | inactive | inactive | – | – | – | – | –
8 | O=C(CSc1nnc(-c2cccc([N+](=O)[O-])c2)[nH]1)Nc1nc2ccccc2o1 | 0.25 | 378 | 16 | – | inactive | inactive | inactive | – | – | – | – | –
9 | O=C(CSc1nnc(-c2cccc([N+](=O)[O-])c2)s1)Nc1nc2ccccc2[nH]1 | 0.5 | 1.8 | 16 | – | inactive | inactive | inactive | – | – | – | – | –
10 | O=C(CSc1nnc(-c2ccccc2O)o1)Nc1nc2ccccc2[nH]1 | 0.5 | 0.63 | 16 | – | inactive | inactive | inactive | – | – | – | – | –
11 | Nn1c(Cc2cccs2)nnc1SCC(=O)Nc1nc2ccccc2[nH]1 | 0.25 | 0.077 | 16 | – | inactive | inactive | inactive | – | 80 | 110 | – | –
12 | Nn1c(Cc2ccccc2)nnc1SCC(=O)Nc1nc2ccccc2o1 | 0.5 | 29 | 16 | – | inactive | inactive | inactive | – | – | – | – | –
13 | Nc1ccccc1-c1nnc(SCC(=O)Nc2nc3ccc([N+](=O)[O-])cc3[nH]2)n1N | 1 | – | 8 | 1.1 | inactive | inactive | – | inactive | – | – | – | –
14 | O=C(CSc1nnc(-c2ccccc2O)s1)Nc1nc2ccccc2[nH]1 | 0.5 | 0.33 | 16 | – | inactive | inactive | inactive | – | – | – | – | –
15 | Nn1c(Cc2ccccc2)nnc1SCC(=O)Nc1nc2ccc([N+](=O)[O-])cc2[nH]1 | 1 | – | 4 | 0.73 | inactive | inactive | – | inactive | – | – | – | –
16 | O=C(CSc1nnc(-c2ccccc2O)s1)Nc1nc2ccccc2o1 | 0.5 | 196 | 16 | – | inactive | inactive | inactive | – | – | – | – | –
17 | O=C(CSc1nnc(Cc2ccccc2)o1)Nc1nc2ccccc2o1 | 0.5 | 384 | 32 | – | inactive | inactive | inactive | – | – | – | – | –

Second part, led by results:

Row | MIC (Bacteria [2]) [µg/mL] | IC50 [4] [µM] | MIC (Bacteria [5]) [µg/mL] | IC50 [6] [µM] | Compound | inhibition (Bacteria [1]) | Activity (Escherichia coli) | inhibition (Bacteria [3]) | inhibition (Bacteria [7]) | Kiuc (Bacteria [8]) [nM] | Kic (Bacteria [9]) [nM] | Kiuc (Bacteria [10]) [nM] | Kic (Bacteria [11]) [nM]
18 | 0.5 | 0.94 | 16 | – | Nc1ccccc1-c1nnc(SCC(=O)Nc2nc3ccccc3[nH]2)[nH]1 | inactive | inactive | inactive | – | – | – | – | –
19 | 0.5 | 259 | 16 | – | O=C(CSc1nnc(Cc2ccccc2)s1)Nc1nc2ccccc2o1 | inactive | inactive | inactive | – | – | – | – | –
20 | 1 | – | 8 | 1.3 | O=C(CSc1nnc(-c2ccccc2O)o1)Nc1nc2ccc([N+](=O)[O-])cc2[nH]1 | inactive | inactive | – | inactive | – | – | – | –
21 | 2 | – | 8 | 2.5 | Nc1ccccc1-c1nnc(SCC(=O)Nc2nc3ccc([N+](=O)[O-])cc3[nH]2)s1 | inactive | inactive | – | inactive | – | – | – | –
22 | 1 | – | 8 | 5.9 | O=C(CSc1nnc(-c2ccccc2O)[nH]1)Nc1nc2ccc([N+](=O)[O-])cc2[nH]1 | inactive | inactive | – | inactive | – | – | – | –
23 | 0.5 | 53 | 16 | – | Nn1c(Cc2cccs2)nnc1SCC(=O)Nc1nc2ccccc2o1 | inactive | inactive | inactive | – | – | – | – | –
24 | 1 | – | 8 | 5.1 | O=C(CSc1nnc(-c2cccc([N+](=O)[O-])c2)s1)Nc1nc2ccc([N+](=O)[O-])cc2[nH]1 | inactive | inactive | – | inactive | – | – | – | –
25 | 0.25 | 0.015 | 16 | – | Nc1ccccc1-c1nnc(SCC(=O)Nc2nc3ccccc3[nH]2)n1N | inactive | inactive | inactive | – | 11 | 22 | – | –
26 | 1 | – | 4 | 0.17 | Nc1ccccc1-c1nnc(SCC(=O)Nc2nc3ccc([N+](=O)[O-])cc3[nH]2)[nH]1 | inactive | inactive | – | inactive | – | – | 310 | 550
27 | 1 | – | 4 | 0.5 | O=C(CSc1nnc(Cc2ccccc2)o1)Nc1nc2ccc([N+](=O)[O-])cc2[nH]1 | inactive | inactive | – | inactive | – | – | – | –
28 | 0.25 | 1.7 | 16 | – | Nc1ccccc1-c1nnc(SCC(=O)Nc2nc3ccccc3[nH]2)o1 | inactive | inactive | inactive | – | – | – | – | –

Reference: ChEMBL document CHEMBL4184158, “Azolylthioacetamides as a potent scaffold for the development of metallo-β-lactamase inhibitors” (Bioorg Med Chem Lett, 2017)
